# Laboratory results as given in ChEMBL document CHEMBL3885861, “Open TG-GATES”.
# Species: Rattus norvegicus
# Test: Open TG-GATES - Regimen: Daily Repeat
# Format: toxicity, organism-based, Sprague-Dawley
# Parameters: regimen Daily Repeat, gender Male, age 6 weeks
# Conditions: in vivo, po, route gavage; for APTT / Bas / Eos / Fbg / Hb / Ht / Lym / MCH / MCHC / MCV / Mono / Neu / PT / Plat / RBC / Ret / WBC: tissue Blood; for LIVER: tissue Liver; for A/G / ALP / ALT / AST / BUN / CRE / Ca / Cl / DBIL / GLC / IP / K / LDH / Na / PL / RALB / TBIL / TC / TG / TP / gamma-GTP: tissue Plasma
# [1] = 0 mg/kg, 72 h, dose level Control, time 3 day
# [2] = 0 mg/kg, […], dose level Control, time 7 day
# [3] = 0 mg/kg, […], dose level Control, time 14 day
# [4] = 0 mg/kg, […], dose level Control, time 28 day
# [5] = 5 mg/kg, 72 h, dose level Low, time 3 day
# [6] = 5 mg/kg, […], dose level Low, time 7 day
# [7] = 5 mg/kg, […], dose level Low, time 14 day
# [8] = 5 mg/kg, […], dose level Low, time 28 day
smiles,measurement,setting,value
C=C(C)[C@H]1Cc2c(ccc3c2O[C@@H]2COc4cc(OC)c(OC)cc4[C@@H]2C3=O)O1 [ROTENONE],TERMINAL_BW,[1],213.4 g
same,APTT,[1],16 s
same,Bas,[1],0%
same,Eos,[1],1%
same,Fbg,[1],211.8 mg/dL
same,Hb,[1],13.2 g/dL
same,Ht,[1],40.7%
same,Lym,[1],77.8%
same,MCH,[1],20.8 pg
same,MCHC,[1],32.4%
same,MCV,[1],64.1 fL
same,Mono,[1],7.8%
same,Neu,[1],14%
same,PT,[1],11.8 s
same,Plat,[1],118 x10_4/uL
same,RBC,[1],635 x10_4/ul
same,Ret,[1],6.1%
same,WBC,[1],92.8 x10_2/uL
same,LIVER,[1],10 g
same,A/G,[1],2.3
same,ALP,[1],1677.6 IU/L
same,ALT,[1],37.8 IU/L
same,AST,[1],67.4 IU/L
same,BUN,[1],18 mg/dL
same,CRE,[1],0.4 mg/dL
same,Ca,[1],11.3 mg/dL
same,Cl,[1],104.2 meq/L
same,DBIL,[1],0.014 mg/dL
same,GLC,[1],187.2 mg/dL
same,IP,[1],7.1 mg/dL
same,K,[1],4.4 meq/L
same,LDH,[1],96.6 IU/L
same,Na,[1],140.6 meq/L
same,PL,[1],141.8 mg/dL
same,RALB,[1],3.8 g/dL
same,TBIL,[1],0.042 mg/dL
same,TC,[1],77.6 mg/dL
same,TG,[1],105 mg/dL
same,TP,[1],5.5 g/dL
same,gamma-GTP,[1],0.4 IU/L
same,TERMINAL_BW,[2],254 g
same,TERMINAL_BW,[3],305.5 g
same,TERMINAL_BW,[4],378.4 g
same,APTT,[2],15.9 s
same,Bas,[2],0%
same,Eos,[2],1%
same,Fbg,[2],239.4 mg/dL
same,Hb,[2],13.2 g/dL
same,Ht,[2],40.2%
same,Lym,[2],80%
same,MCH,[2],21.1 pg
same,MCHC,[2],32.8%
same,MCV,[2],64.3 fL
same,Mono,[2],6%
same,Neu,[2],13.2%
same,PT,[2],11.6 s
same,Plat,[2],122.4 x10_4/uL
same,RBC,[2],626.2 x10_4/ul
same,Ret,[2],5.5%
same,WBC,[2],113.8 x10_2/uL
same,APTT,[3],14.9 s
same,Bas,[3],0%
same,Eos,[3],1%
same,Fbg,[3],241.8 mg/dL
same,Hb,[3],13.9 g/dL
same,Ht,[3],41.9%
same,Lym,[3],73.6%
same,MCH,[3],20.5 pg
same,MCHC,[3],33.1%
same,MCV,[3],61.8 fL
same,Mono,[3],4.6%
same,Neu,[3],21%
same,PT,[3],11.3 s
same,Plat,[3],125.6 x10_4/uL
same,RBC,[3],678.4 x10_4/ul
same,Ret,[3],3.8%
same,WBC,[3],106.4 x10_2/uL
same,APTT,[4],18 s
same,Bas,[4],0%
same,Eos,[4],1%
same,Fbg,[4],217.6 mg/dL
same,Hb,[4],14.9 g/dL
same,Ht,[4],45%
same,Lym,[4],72%
same,MCH,[4],19.7 pg
same,MCHC,[4],33.1%
same,MCV,[4],59.3 fL
same,Mono,[4],7.2%
same,Neu,[4],19.8%
same,PT,[4],12.5 s
same,Plat,[4],115 x10_4/uL
same,RBC,[4],758.8 x10_4/ul
same,Ret,[4],2%
same,WBC,[4],107.2 x10_2/uL
same,LIVER,[2],12.8 g
same,LIVER,[3],14.2 g
same,LIVER,[4],15.3 g
same,A/G,[2],2.1
same,ALP,[2],1286.8 IU/L
same,ALT,[2],35.2 IU/L
same,AST,[2],60.6 IU/L
same,BUN,[2],19 mg/dL
same,CRE,[2],0.4 mg/dL
same,Ca,[2],11.5 mg/dL
same,Cl,[2],104.6 meq/L
same,DBIL,[2],0.014 mg/dL
same,GLC,[2],195.4 mg/dL
same,IP,[2],7.7 mg/dL
same,K,[2],4.5 meq/L
same,LDH,[2],71.8 IU/L
same,Na,[2],140.4 meq/L
same,PL,[2],157.2 mg/dL
same,RALB,[2],3.9 g/dL
same,TBIL,[2],0.034 mg/dL
same,TC,[2],81.2 mg/dL
same,TG,[2],132.2 mg/dL
same,TP,[2],5.8 g/dL
same,gamma-GTP,[2],1 IU/L
same,A/G,[3],2.1
same,ALP,[3],1512 IU/L
same,ALT,[3],36.4 IU/L
same,AST,[3],67.2 IU/L
same,BUN,[3],18.4 mg/dL
same,CRE,[3],0.4 mg/dL
same,Ca,[3],11.5 mg/dL
same,Cl,[3],104.8 meq/L
same,DBIL,[3],0.01 mg/dL
same,GLC,[3],186 mg/dL
same,IP,[3],6.9 mg/dL
same,K,[3],4.5 meq/L
same,LDH,[3],111.6 IU/L
same,Na,[3],139.6 meq/L
same,PL,[3],156 mg/dL
same,RALB,[3],4 g/dL
same,TBIL,[3],0.03 mg/dL
same,TC,[3],80 mg/dL
same,TG,[3],131.8 mg/dL
same,TP,[3],5.9 g/dL
same,gamma-GTP,[3],1 IU/L
same,A/G,[4],2
same,ALP,[4],1248 IU/L
same,ALT,[4],32.2 IU/L
same,AST,[4],58.6 IU/L
same,BUN,[4],18.2 mg/dL
same,CRE,[4],0.4 mg/dL
same,Ca,[4],10.9 mg/dL
same,Cl,[4],106.8 meq/L
same,DBIL,[4],0.01 mg/dL
same,GLC,[4],182.2 mg/dL
same,IP,[4],5.7 mg/dL
same,K,[4],4.5 meq/L
same,LDH,[4],62.8 IU/L
same,Na,[4],141.2 meq/L
same,PL,[4],134.8 mg/dL
same,RALB,[4],3.8 g/dL
same,TBIL,[4],0.03 mg/dL
same,TC,[4],62 mg/dL
same,TG,[4],182.2 mg/dL
same,TP,[4],5.7 g/dL
same,gamma-GTP,[4],1 IU/L
same,TERMINAL_BW,[5],226.1 g
same,APTT,[5],17.7 s
same,Bas,[5],0%
same,Eos,[5],1%
same,Fbg,[5],212.2 mg/dL
same,Hb,[5],13 g/dL
same,Ht,[5],39.1%
same,Lym,[5],76.2%
same,MCH,[5],21.3 pg
same,MCHC,[5],33.2%
same,MCV,[5],64.1 fL
same,Mono,[5],5.6%
same,Neu,[5],17.2%
same,PT,[5],12.1 s
same,Plat,[5],129 x10_4/uL
same,RBC,[5],610.6 x10_4/ul
same,Ret,[5],7.7%
same,WBC,[5],114.4 x10_2/uL
same,LIVER,[5],11.2 g
same,A/G,[5],2.2
same,ALP,[5],1376 IU/L
same,ALT,[5],37.2 IU/L
same,AST,[5],67.4 IU/L
same,BUN,[5],19.2 mg/dL
same,CRE,[5],0.4 mg/dL
same,Ca,[5],11.6 mg/dL
same,Cl,[5],104.8 meq/L
same,DBIL,[5],0.014 mg/dL
same,GLC,[5],188.2 mg/dL
same,IP,[5],7.5 mg/dL
same,K,[5],4.5 meq/L
same,LDH,[5],111.2 IU/L
same,Na,[5],142.4 meq/L
same,PL,[5],152.4 mg/dL
same,RALB,[5],3.8 g/dL
same,TBIL,[5],0.032 mg/dL
same,TC,[5],85.6 mg/dL
same,TG,[5],78 mg/dL
same,TP,[5],5.6 g/dL
same,gamma-GTP,[5],0.4 IU/L
same,TERMINAL_BW,[6],258.8 g
same,TERMINAL_BW,[7],318.2 g
same,TERMINAL_BW,[8],393.8 g
same,APTT,[6],15.9 s
same,Bas,[6],0%
same,Eos,[6],0.8%
same,Fbg,[6],227.4 mg/dL
same,Hb,[6],13.4 g/dL
same,Ht,[6],40.6%
same,Lym,[6],68.2%
same,MCH,[6],21.5 pg
same,MCHC,[6],33%
same,MCV,[6],65.3 fL
same,Mono,[6],9.6%
same,Neu,[6],21.6%
same,PT,[6],11.6 s
same,Plat,[6],117.4 x10_4/uL
same,RBC,[6],622.8 x10_4/ul
same,Ret,[6],5.7%
same,WBC,[6],93.6 x10_2/uL
same,APTT,[7],15.7 s
same,Bas,[7],0%
same,Eos,[7],1%
same,Fbg,[7],238.2 mg/dL
same,Hb,[7],13.9 g/dL
same,Ht,[7],41.7%
same,Lym,[7],75.8%
same,MCH,[7],20.6 pg
same,MCHC,[7],33.2%
same,MCV,[7],62.2 fL
same,Mono,[7],5.2%
same,Neu,[7],18.4%
same,PT,[7],11.4 s
same,Plat,[7],130.8 x10_4/uL
same,RBC,[7],671.4 x10_4/ul
same,Ret,[7],3.8%
same,WBC,[7],138.2 x10_2/uL
same,APTT,[8],19 s
same,Bas,[8],0%
same,Eos,[8],1.2%
same,Fbg,[8],204.2 mg/dL
same,Hb,[8],14.7 g/dL
same,Ht,[8],44.3%
same,Lym,[8],74.6%
same,MCH,[8],19.3 pg
same,MCHC,[8],33.2%
same,MCV,[8],58.2 fL
same,Mono,[8],5%
same,Neu,[8],19.6%
same,PT,[8],12.6 s
same,Plat,[8],117.6 x10_4/uL
same,RBC,[8],761.4 x10_4/ul
same,Ret,[8],2.1%
same,WBC,[8],107.4 x10_2/uL
same,LIVER,[6],13.1 g
same,LIVER,[7],15.3 g
same,LIVER,[8],16.3 g
same,A/G,[6],2.1
same,ALP,[6],1367.8 IU/L
same,ALT,[6],39.6 IU/L
same,AST,[6],65 IU/L
same,BUN,[6],18.2 mg/dL
same,CRE,[6],0.4 mg/dL
same,Ca,[6],11.7 mg/dL
same,Cl,[6],103.2 meq/L
same,DBIL,[6],0.018 mg/dL
same,GLC,[6],202.2 mg/dL
same,IP,[6],7.4 mg/dL
same,K,[6],4.4 meq/L
same,LDH,[6],110.6 IU/L
same,Na,[6],140 meq/L
same,PL,[6],150.8 mg/dL
same,RALB,[6],3.8 g/dL
same,TBIL,[6],0.04 mg/dL
same,TC,[6],79.4 mg/dL
same,TG,[6],106.6 mg/dL
same,TP,[6],5.6 g/dL
same,gamma-GTP,[6],0.6 IU/L
same,A/G,[7],2.1
same,ALP,[7],1397.6 IU/L
same,ALT,[7],36.6 IU/L
same,AST,[7],68 IU/L
same,BUN,[7],19.4 mg/dL
same,CRE,[7],0.4 mg/dL
same,Ca,[7],11.8 mg/dL
same,Cl,[7],105 meq/L
same,DBIL,[7],0.012 mg/dL
same,GLC,[7],188.6 mg/dL
same,IP,[7],6.9 mg/dL
same,K,[7],4.6 meq/L
same,LDH,[7],142.4 IU/L
same,Na,[7],139.2 meq/L
same,PL,[7],164.2 mg/dL
same,RALB,[7],3.9 g/dL
same,TBIL,[7],0.03 mg/dL
same,TC,[7],85.4 mg/dL
same,TG,[7],152.4 mg/dL
same,TP,[7],5.8 g/dL
same,gamma-GTP,[7],1 IU/L
same,A/G,[8],1.8
same,ALP,[8],1025.4 IU/L
same,ALT,[8],33 IU/L
same,AST,[8],64.2 IU/L
same,BUN,[8],18 mg/dL
same,CRE,[8],0.4 mg/dL
same,Ca,[8],10.7 mg/dL
same,Cl,[8],105.8 meq/L
same,DBIL,[8],0.01 mg/dL
same,GLC,[8],175.2 mg/dL
same,IP,[8],6.2 mg/dL
same,K,[8],4.5 meq/L
same,LDH,[8],101.8 IU/L
same,Na,[8],141.2 meq/L
same,PL,[8],134.8 mg/dL
same,RALB,[8],3.8 g/dL
same,TBIL,[8],0.032 mg/dL
same,TC,[8],65.6 mg/dL
same,TG,[8],143 mg/dL
same,TP,[8],6 g/dL
same,gamma-GTP,[8],1 IU/L
